Several values for one entry are separate records, joined by “and”; a condition that tells them apart may be missing. Equal values may be shown once.
Test system: OVCAR-5 complex spheroids, viability
Test: Anticancer human tumor OVCAR-5 cell line growth inhibition;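 also: spheroids exposed to agents for seven days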;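 as to viability, T/C: 100% = DMSO vehicle control wells viability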
Conditions: for viability, T/C: stronger effect = lower value
Procedure, shortened: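 Drug combinations with the LSD1 inhibitor iadademstat tested on tumor cells co-cultured as spheroids with endothelial cells and mesenchymal stem cells. Concentrations descended in half-log increments from clinical Cmax or 10 microM.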

[1] = curve of first compound, second compound 0.1 µM
[2] = curve of first compound, second compound 0.316 µM
[3] = curve of first compound, second compound 1 µM
[4] = curve of first compound, second compound 3.16 µM
[5] = curve of first compound, second compound 10 µM
[6] = second compound 0.1 µM, first compound 0.0316 µM
[7] = second compound 0.1 µM, first compound 0.1 µM
[8] = second compound 0.1 µM, first compound 0.316 µM
[9] = second compound 0.1 µM, first compound 1 µM
[10] = second compound 0.1 µM, first compound 3.16 µM
[11] = second compound 0.1 µM, first compound 10 µM
[12] = second compound 0.316 µM, first compound 0.0316 µM
[13] = second compound 0.316 µM, first compound 0.1 µM
[14] = second compound 0.316 µM, first compound 0.316 µM
[15] = second compound 0.316 µM, first compound 1 µM
[16] = second compound 0.316 µM, first compound 3.16 µM
[17] = second compound 0.316 µM, first compound 10 µM
[18] = second compound 1 µM, first compound 0.0316 µM
[19] = second compound 1 µM, first compound 0.1 µM
[20] = second compound 1 µM, first compound 0.316 µM
[21] = second compound 1 µM, first compound 1 µM
[22] = second compound 1 µM, first compound 3.16 µM
[23] = second compound 1 µM, first compound 10 µM
[24] = second compound 3.16 µM, first compound 0.0316 µM
[25] = second compound 3.16 µM, first compound 0.1 µM
[26] = second compound 3.16 µM, first compound 0.316 µM
[27] = second compound 3.16 µM, first compound 1 µM
[28] = second compound 3.16 µM, first compound 3.16 µM
[29] = second compound 3.16 µM, first compound 10 µM
[30] = second compound 10 µM, first compound 0.0316 µM
[31] = second compound 10 µM, first compound 0.1 µM
[32] = second compound 10 µM, first compound 0.316 µM
[33] = second compound 10 µM, first compound 1 µM
[34] = second compound 10 µM, first compound 3.16 µM
[35] = second compound 10 µM, first compound 10 µM

Compound | IC50 [1] | IC50 [2] | IC50 [3] | IC50 [4] | IC50 [5] | viability, T/C [6] | viability, T/C [7] | viability, T/C [8] | viability, T/C [9] | viability, T/C [10] | viability, T/C [11] | viability, T/C [12] | viability, T/C [13] | viability, T/C [14] | viability, T/C [15] | viability, T/C [16] | viability, T/C [17] | viability, T/C [18] | viability, T/C [19] | viability, T/C [20] | further results
CC(C)c1c(-c2ccccc2)nc2c(C#N)c[nH]n2c1=O + NC1CC1c1ccc(-c2cccc(O)c2)cc1 | > 10 µM | > 10 µM | > 10 µM | > 10 µM | > 10 µM | 92.2% | 98.4% | 97.4% | 98.4% | 99.9% | 107% | 98% | 96% | 102% | 102% | 98% | 108% | 87% | 90% | 97.1% | viability, T/C [21]: 105%; viability, T/C [22]: 96.1%; viability, T/C [23]: 104%; viability, T/C [24]: 88.3%; viability, T/C [25]: 95.4%; viability, T/C [26]: 77.8%; viability, T/C [27]: 95.6%; viability, T/C [28]: 88.8%; viability, T/C [29]: 98.9%; viability, T/C [30]: 82.2%; viability, T/C [31]: 91%; viability, T/C [32]: 80.5%; viability, T/C [33]: 87.5%; viability, T/C [34]: 87.7%; viability, T/C [35]: 73.5%
CCN(c1cc(-c2ccc(CN3CCOCC3)cc2)cc(C(=O)NCc2c(C)cc(C)[nH]c2=O)c1C)C1CCOCC1 |  |  |  |  |  |  |  |  |  |  |  |  |  |  |  |  |  |  |  |  | viability, T/C (compound 0.00949 µM): 101% and 110%; viability, T/C (compound 0.03 µM): 102% and 107%; viability, T/C (compound 0.0949 µM): 104% and 103%; viability, T/C (compound 0.3 µM): 102% and 97.2%; viability, T/C (compound 0.949 µM): 98.4% and 103%; viability, T/C (compound 3 µM): 100% and 109%; IC50 (curve of compound): > 3 µM
CC1(C)CCC(CN2CCN(c3ccc(C(=O)NS(=O)(=O)c4ccc(NCC5CCOCC5)c([N+](=O)[O-])c4)c(Oc4cnc5[nH]ccc5c4)c3)CC2)=C(c2ccc(Cl)cc2)C1 + NC1CCC(NC2CC2c2ccccc2)CC1 | 7.15 µM | 7.06 µM | 6.81 µM | 6.3 µM | 5.48 µM | 116% | 97.5% | 105% | 98.9% | 111% | 27.1% | 108% | 97.6% | 98.4% | 108% | 111% | 26.2% | 97.6% | 91.5% | 92.3% | viability, T/C [21]: 101%; viability, T/C [22]: 96.1%; viability, T/C [23]: 27%; viability, T/C [24]: 99.9%; viability, T/C [25]: 106%; viability, T/C [26]: 105%; viability, T/C [27]: 104%; viability, T/C [28]: 88.8%; viability, T/C [29]: 23.8%; viability, T/C [30]: 90.7%; viability, T/C [31]: 93.3%; viability, T/C [32]: 78.4%; viability, T/C [33]: 91.7%; viability, T/C [34]: 72.8%; viability, T/C [35]: 24.9%

Reference: PubChem BioAssay AID1918956 (Molecular Pharmacology Branch, DTP, NCI, 2023)
